Reference: publication PMC11674141, “Antimicrobial activity and synergistic effect of phage-encoded antimicrobial peptides with colistin and outer membrane permeabilizing agents against Acinetobacter baumannii” (PeerJ, 2024)
Read-outs that look alike come from different tables or passages of the source. Where no end group is shown, it is not given here.

What was measured:
Bacillus subtilis = conditions: B. subtilis, sensitive
A. baumannii ATCC19606 [1] = conditions: for Minimum Inhibitory Concentration (MIC): A. baumannii 19606, sensitive
Klebsiella pneumoniae = conditions: K. pneumoniae, sensitive
Staphylococcus aureus = conditions: S. aureus, sensitive
HepG2 cell line = experiment: MTT cell viability assay; type: cell-based, human; set-up: key to Mean cell viability (Mean 2; control = 100): % viability relative to control (control = 100%); conditions: for IC50 (reduction of viable cells to 50%): 24 h, three independent experiments; for Mean cell viability (Mean 2; control = 100): mean of n = 3
Protocol: We aimed to determine the effects of peptides on cell viability and proliferation in the human hepatocellular carcinoma HepG2 cell line. The MTT assay was performed as described by [Muangpat et al. (2022)] with some modifications. The cells were cultured in Dulbecco’s Modified Eagle Medium (DMEM; Sigma-Aldrich, St. Louis, MO, USA), supplemented with 10% fetal bovine serum (FBS), 100 U/ml penicillin, and 100 μg/ml streptomycin at 37 °C in 5% CO^2 and 95% humidity. The cells were seeded into a 96-well plate at a density of 1 × 10^4 cells/well and allowed to adhere overnight. Then, the cells were exposed for 24 h to various concentrations of peptides. The control cells were cultured in complete DMEM medium containing 0.2% DMSO. After the 24-h incubation period, 20 μL of MTT solution (5 mg/mL in PBS) (Tokyo Chemical Industry Co., Ltd., Tokyo, Japan) was added to each well and incubated for another 2 h at 37 °C. The culture medium was then removed, and formazan crystals formed by viable cells were dissolved in 100 μL of DMSO before measuring the absorbance at 590 nm using a microplate spectrophotometer. The effect of the peptide on cell viability was calculated as a percentage of the control, which was arbitrarily assigned a value of 100% viability. The percentage of cell viability was calculated relative to the control group. The IC₅₀ of the peptides was defined as the concentration that caused a 50% reduction in cell viability compared with the control. The MTT assay was conducted in three independent experiments, each with triplicate wells per condition.

[2] = test system: twenty biofilm-forming A. baumannii strains; experiment: Inhibition of biofilm formation (crystal violet); type: cell-based, Acinetobacter baumannii; set-up: Percent biofilm forming inhibition: concentration or dose not given beside the values; conditions: for average percent inhibition of biofilm formation: twenty A. baumannii strains, peptide at MIC (312.5, 156.25, 156.25 µg/mL), 24 h, crystal violet OD595
Protocol: We determined the ability of peptides to inhibit biofilm formation in twenty biofilm-forming strains using the method described by [Karyne et al. (2020)] with some modifications. Briefly, biofilm-forming strains of A. baumannii were adjusted to an equivalent of the 0.5 McFarland standard in 2× Luria Bertani (LB) broth supplemented with 20% glucose. Then, 50 µL of A. baumannii and 50 µL of peptides were added. […] The plates were incubated overnight at 37 °C. After 24 h of incubation, the culture medium was gently removed, and the wells were washed three times with phosphate-buffered saline. The adherent cells were fixed with absolute methanol for 10 min, stained with 0.4% crystal violet for 15 min, and washed three times with sterile distilled water, then air-dried. The plates were then filled with 250 µL of 33% acetic acid for 15 min. The absorbance at OD595 nm was determined. All experiments were performed in three independent assays, each repeated in triplicate, and the percentage of biofilm reduction was calculated based on treated wells vs. non-treated wells.

Pseudomonas aeruginosa = conditions: P. aeruginosa, sensitive
Escherichia coli = conditions: E. coli, sensitive
A. baumannii ATCC19606 [3] = test system: A. baumannii ATCC19606
[4] = A. baumannii 19,606, microdilution, MHB, 37 °C overnight, triplicate samples
[5] = peptide concentration 25 (unit not given)
[6] = peptide concentration 50 (unit not given)
[7] = peptide concentration 156.25 (unit not given)
[8] = peptide concentration 300 (unit not given)
[9] = peptide concentration 600 (unit not given)
[10] = peptide concentration 800 (unit not given)

MIC (ATCC19606) (A. baumannii ATCC19606 [1]; ATCC19606) [µg/mL]	MIC values (A. baumannii ATCC19606 [1]; ATCC19606)	Substance	Minimum Inhibitory Concentration (MIC) (Bacillus subtilis) [µg/mL]	Minimum Inhibitory Concentration (MIC) (A. baumannii ATCC19606 [1]) [µg/mL]	MIC values (A. baumannii ATCC19606 [1]; [4]) [µg/mL]	MIC (ATCC19606) (A. baumannii ATCC19606 [1]; A. baumannii ATCC19606) [µg/mL]	Minimum Inhibitory Concentration (MIC) (Klebsiella pneumoniae) [µg/mL]	Minimum Inhibitory Concentration (MIC) (Staphylococcus aureus) [µg/mL]	average percent inhibition of biofilm formation [2] [%]	Minimum Inhibitory Concentration (MIC) (Pseudomonas aeruginosa) [µg/mL]	Minimum Inhibitory Concentration (MIC) (Escherichia coli) [µg/mL]	Minimum Inhibitory Concentration (MIC) (MDR-AB, XDR-AB; strain AB003, MDR-AB) [µg/mL]	Minimum Inhibitory Concentration (MIC) (MDR-AB, XDR-AB; strain AB183, XDR-AB) [µg/mL]	Minimum Inhibitory Concentration (MIC) (MDR-AB, XDR-AB; strain AB329, XDR-AB) [µg/mL]	Minimum Inhibitory Concentration (MIC) (MDR-AB, XDR-AB; strain CR89, MDR-AB) [µg/mL]	FIC index, peptide plus colistin (A. baumannii ATCC19606 [3]; ATCC19606)	further results
–	–	KIAIQIAIKGMLNGWFTGVGFRRKR [PE04-2]	39.06	156.25	156.25	156.25	312.5	39.06	91.92	312.5	156.25	78.12	78.12	156.25	156.25	0.14	IC50 (reduction of viable cells to 50%) (HepG2 cell line): 424.1 µg/mL; Mean cell viability (Mean 2; control = 100) (HepG2 cell line; [5]): 90.16; Mean cell viability (Mean 2; control = 100) (HepG2 cell line; [6]): 91.63; Mean cell viability (Mean 2; control = 100) (HepG2 cell line; [7]): 79.64; Mean cell viability (Mean 2; control = 100) (HepG2 cell line; [8]): 71.67; Mean cell viability (Mean 2; control = 100) (HepG2 cell line; [9]): 32.89; Mean cell viability (Mean 2; control = 100) (HepG2 cell line; [10]): 14.6; Percent biofilm forming inhibition ([2]; strain AB57, XDR-AB / CR-AB, 2013): 92.3659%; Percent biofilm forming inhibition ([2]; strain AB263, MDR-AB, 2014): 88.4382%; FICI (A. baumannii ATCC19606 [3]; ATCC19606): 0.25
> 5000	>5,000 ug/ml	KRQTLADKKERKKFHDGLMLNDNIR [PIN02]	–	–	–	–	–	–	–	–	–	–	–	–	–	–	–
–	–	LIAIQIAIKGMLNGWFTGVGFRRKR [PE04-1]	39.06	312.5	312.5	312.5	2500	39.06	58.11	2500	2500	312.5	156.25	625	312.5	0.19	IC50 (reduction of viable cells to 50%) (HepG2 cell line): 1,440 ug/ml; Percent biofilm forming inhibition ([2]; strain AB23, MDR-AB / CR-AB, 2013): 92.1075%; Percent biofilm forming inhibition ([2]; strain CR65-47, MDR-AB / CR-AB, 2022): 61.4919%
–	–	LIAIQIAIKGMLNGWFTGVGFRRKR-NH2 [PE04-1(NH2)]	19.531	156.25	156.25	156.25	625	39.06	75.51	2500	156.25	156.25	156.25	312.5	312.5	0.19	Mean cell viability (Mean 2; control = 100) (HepG2 cell line; [5]): 94.88; Mean cell viability (Mean 2; control = 100) (HepG2 cell line; [6]): 86.43; Mean cell viability (Mean 2; control = 100) (HepG2 cell line; [7]): 81.93; Mean cell viability (Mean 2; control = 100) (HepG2 cell line; [8]): 76.66; Mean cell viability (Mean 2; control = 100) (HepG2 cell line; [9]): 49.65; Mean cell viability (Mean 2; control = 100) (HepG2 cell line; [10]): 28.83; Percent biofilm forming inhibition ([2]; strain AB263, MDR-AB, 2014): 89.6713%
–	–	LIAIQIAIKGMLNGWFTGVGFRRKR-NH2 [PE04-1-NH2]	–	–	–	–	–	–	–	–	–	–	–	–	–	–	MIC alone (A. baumannii ATCC19606 [3]; ATCC19606, checkerboard, agent alone): 156.25 µg/mL
> 2500	>2,500 ug/ml	LNSKDYAGAAAQFLVWNKGRVKGKL [PE02-1]	–	–	–	–	–	–	–	–	–	–	–	–	–	–	–
1250	1,250 ug/ml	WNKGRVKGKLEVIPGLTNRRKKEKA [PE02-2]	–	–	–	–	–	–	–	–	–	–	–	–	–	–	–
